Experimental data as given in patent publication US11345666B2, “Phenyl and pyridinyl substituted imidazoles as modulators of RORγT” (Janssen Pharmaceutica NV, priority 2018, dated 2022).

Legend:
full-length human RORγt = full-length human RORγt (Homo sapiens (Human), UniProt P51449); assay: RORγt (full-length human) reporter assay, conditions A or B; type: cell-based; conditions: for inhibition at 3 µM: 3 μM compound concentration (*); for inhibition at 3 µM / inhibition at 1 µM: read-out: RORγt (FL) Reporter Assay A or B, % inhibition; for IC50: HEK293T cells, read-out: RORγt (FL) Reporter Assay A or B, IC50; for inhibition at 1 µM: 1 μM compound concentration (***); for inhibition at 0.67 µM: read-out: RORγt (FL) Reporter Assay A or B, % inhibition, 0.67 μM compound concentration (****)
Excerpt: RORγt (Full-Length Human) Reporter Assay:
Cells used in this assay were transiently co-transfected with three different plasmids, one expressing the GAL4-DNA binding domain (DBD)-RORγt fusion protein under control of a CMV promoter (NH2-Gal4-DBD:RORC—COOH in pCMV-BD, Stratagene #211342), and two reporter plasmids—the firefly luciferase reporter under control of a GAL4 promoter (pFR-Luc 2×GAL4) and Renilla luciferase reporter under control of CMV promoter (pRL-CMV, Promega #E2261). […] HEK293T cells were plated at 35,000 per well in 96-well plate in medium of DMEM with 10% FBS. After 18-22 hours incubation, the transfection was carried out by using a PEI solution with 170.5 ng total DNA/well (50 ng pCMV-BD-ROR plus 20 ng of pFR-Luc reporter and 0.5 ng of pRL-CMV reporter plus 100 ng Carrier DNA (Clontech #630440) for each well). 4-6 hours after transfection, cells were treated with compounds for overnight in the medium with final concentration of FBS 1.3% and DMSO 0.1%. After overnight (16 to 20 hours) incubation, media were removed and cells were lysed with […] Glo Lysis Buffer (Promega) for 10-15 minutes followed by 10 minute incubation with 50 μL Dual Glo reagent (Promega) at room temperature. Firefly luciferase luminescence was measured using a BMG Pherastar plate reader. To each well, 50 μL Stop and Glo reagent was added and incubated for 10 minutes at room temperature. Renilla luminescence was measured using a BMG Pherastar plate reader. To calculate the effect of compounds on RORγt activity, firefly values were normalized against values of DMSO only and values of reference compound at saturating concentration, then further normalized against Renilla signals. IC50s were generated by plotting final Renilla normalized data against compound concentration and percent inhibition was calculated against DMSO control.
Cells used in this assay were transiently co-transfected with three different plasmids, one expressing the GAL4-DNA binding domain (DBD)-RORγt fusion protein under control of a CMV promoter (NH2-Gal4-DBD:RORC—COOH in pCMV-BD, Stratagene #211342), and two reporter plasmids—the firefly luciferase reporter under control of a GAL4 promoter (pFR-Luc 2×GAL4) and Renilla luciferase reporter under control of CMV promoter (pRL-CMV, Promega #E2261). […] HEK293T cells were plated at 8750 cells per well in 384-well plate in medium of DMEM with 10% FBS. After 18-22 hours incubation, the transfection was carried out by using a PEI solution with 42.6 ng total DNA/well (12.5 ng pCMV-BD-ROR plus 5 ng of pFR-Luc reporter and 0.125 ng of pRL-CMV reporter plus 25 ng Carrier DNA (Clontech #630440) for each well). 4-6 hours after transfection, cells were treated with compounds for overnight in the medium with final concentration of FBS 1.3% and DMSO 0.1%. After overnight (16 to 20 hours) incubation, media were removed and cells were lysed with 20 μL Glo Lysis Buffer (Promega) for 10-15 minutes followed by 10 minute incubation with 20 μL Dual Glo reagent (Promega) at room temperature. Firefly luciferase luminescence was measured using a BMG Pherastar plate reader. To each well, 20 μL Stop and Glo reagent was added and incubated for 10 minutes at room temperature. Renilla luminescence was measured using a BMG Pherastar plate reader. To calculate the effect of compounds on RORγt activity, firefly values were normalized against values of DMSO only and values of reference compound at saturating concentration, then further normalized against Renilla signals. IC50s were generated by plotting final Renilla normalized data against compound concentration and percent inhibition was calculated against DMSO control.

[1] = biological target: human RORγt ligand binding domain (RORγt LBD) (Homo sapiens (Human), UniProt P51449); assay: RORγt ThermoFluor assay
Excerpt: ThermoFluor® is a fluorescence based assay that estimates ligand binding affinities by measuring the effect of a ligand on protein thermal stability (Pantoliano, M. W., Petrella, E. C., Kwasnoski, J. D., Lobanov, V. S., Myslik, J., Graf, E., Carver, T., Asel, E., Springer, B. A., Lane, P., and Salemme, F. R. (2001) High-density miniaturized thermal shift assays as a general strategy for drug discovery. J Biomol Screen 6, 429-40, and Matulis, D., Kranz, J. K., Salemme, F. R., and Todd, M. J. (2005) Thermodynamic stability of carbonic anhydrase: measurements of binding affinity and stoichiometry using ThermoFluor. Biochemistry 44, 5258-66). This approach is applicable to a wide variety of systems, and rigorous in theoretical interpretation through quantitation of equilibrium binding constants (KD).
The shift in the melting point described as a ΔTm is proportional to the concentration and affinity of the ligand.
RORγt ThermoFluor® Assay Construct
Nucleotides 850-1635 (SEQ ID NO:2) coding for the wild type human RORγt ligand binding domain (RORγt LBD) were cloned into the pHIS 1 vector, a modified pET E. coli expression vector (Accelagen, San Diego), containing an in-frame N-terminal His-tag and a TurboTEV protease cleavage site (ENLYFQG, SEQ ID NO:3) upstream of the cloned insert sequence. The amino acid sequence for the RORγt construct used in the Thermofluor® assay is shown as SEQ ID NO:4.
ThermoFluor® experiments were carried out using instruments owned by Janssen Research and Development, L.L.C. through its acquisition of 3-Dimensional Pharmaceuticals, Inc. 1,8-ANS (Invitrogen) was used as a fluorescent dye. Protein and compound solutions are dispensed into black 384-well polypropylene PCR microplates (Abgene) and overlayed with silicone oil (1 μL, Fluka, type DC 200) to prevent evaporation.
Bar-coded assay plates are robotically loaded onto a thermostatically controlled PCR-type thermal block and then heated at a typical ramp-rate of 1° C./min for all experiments. Fluorescence was measured by continuous illumination with UV light (Hamamatsu LC6) supplied via fiber optic and filtered through a band-pass filter (380-400 nm; >6 OD cutoff). Fluorescence emission of the entire 384-well plate was detected by measuring light intensity using a CCD camera (Sensys, Roper Scientific) filtered to detect 500±25 nm, resulting in simultaneous and independent readings of all 384 wells. Images were collected at each temperature, and the sum of the pixel intensity in a given area of the assay plate was recorded versus temperature. Reference wells contained RORγt without compounds, and the assay conditions were as follows: • 0.065 mg/mL RORγt • 60 μM 1,8-ANS • 100 mM Hepes, pH 7.0 • 10 mM NaCl • 2.5 mM GSH • 0.002% Tween-20
Project compounds were arranged in a pre-dosed mother plate (Greiner Bio-one) wherein compounds are serially diluted in 100% DMSO by 1:2 from a high concentration of 10 mM over 12 columns within a series (column 12 is a reference well containing DMSO, no compound). The compounds were robotically dispensed directly into assay plates (1×=46 nL) using a Hummingbird capillary liquid handling instrument (Digilab). Following compound dispense, protein and dye in buffer was added to achieve the final assay volume of 3 μL, followed by 1 μL of silicone oil.
The binding affinity was estimated as described previously (Matulis, D., Kranz, J. K., Salemme, F. R., and Todd, M. J. (2005) Thermodynamic stability of carbonic anhydrase: measurements of binding affinity and stoichiometry using ThermoFluor®. Biochemistry 44, 5258-66) using the following thermodynamic parameters of protein unfolding: […]

Sequence of human RORγt ligand binding domain (RORγt LBD) (P51449 other isoform, or with tags, fused parts or gaps): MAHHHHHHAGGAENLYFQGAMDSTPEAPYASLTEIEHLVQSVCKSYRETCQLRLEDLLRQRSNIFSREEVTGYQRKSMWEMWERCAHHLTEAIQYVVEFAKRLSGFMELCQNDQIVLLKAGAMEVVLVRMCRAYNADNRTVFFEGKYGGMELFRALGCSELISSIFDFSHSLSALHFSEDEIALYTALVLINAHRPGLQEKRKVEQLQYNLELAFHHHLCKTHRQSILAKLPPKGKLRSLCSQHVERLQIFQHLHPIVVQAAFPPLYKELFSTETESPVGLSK
Sequence of full-length human RORγt (P51449 other isoform, or with tags, fused parts or gaps): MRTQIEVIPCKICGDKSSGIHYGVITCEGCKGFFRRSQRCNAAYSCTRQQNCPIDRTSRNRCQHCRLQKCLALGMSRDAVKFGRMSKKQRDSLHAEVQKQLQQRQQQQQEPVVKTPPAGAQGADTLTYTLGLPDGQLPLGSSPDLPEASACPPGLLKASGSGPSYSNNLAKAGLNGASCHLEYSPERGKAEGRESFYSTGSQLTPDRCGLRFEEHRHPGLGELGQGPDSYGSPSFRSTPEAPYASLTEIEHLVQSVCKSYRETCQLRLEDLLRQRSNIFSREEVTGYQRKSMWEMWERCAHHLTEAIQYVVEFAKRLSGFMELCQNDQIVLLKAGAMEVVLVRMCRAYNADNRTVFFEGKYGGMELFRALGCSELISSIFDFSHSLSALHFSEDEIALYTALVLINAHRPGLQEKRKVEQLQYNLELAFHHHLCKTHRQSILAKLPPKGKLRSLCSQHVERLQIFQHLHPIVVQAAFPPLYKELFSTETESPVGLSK

| inhibition at 3 µM (full-length human RORγt) [%] | IC50 (full-length human RORγt) [nM] | Kd [1] [nM] | inhibition at 1 µM (full-length human RORγt) [%] | SMILES | inhibition at 0.67 µM (full-length human RORγt) [%] | inhibition at 2 µM (full-length human RORγt; read-out: RORγt (FL) Reporter Assay A or B, % inhibition, 2 μM compound concentration (**)) [%] |
| --- | --- | --- | --- | --- | --- | --- |
| 98 | 75 | 9.8 |  | CCc1nc(C(=O)NC[C@H]2CC[C@H](S(C)(=O)=O)CC2)c(Cl)n1-c1ncc(C[C@H](C)C(F)(F)F)cc1OC(F)F (single isomer, unassigned) [Example 72, 5-Chloro-1-(3-(difluoromethoxy)-5-((S*)-3,3,3-trifluoro-2-methylpropyl)pyridin-2-yl)-2-ethyl-N-(((1r,4S)-4-(methylsulfonyl)cyclohexyl)methyl)-1H-imidazole-4-carboxamide] |  |  |
|  | 110 | 38 | 80 | CCc1nc(C(=O)NC[C@H]2CC[C@H](S(C)(=O)=O)CC2)c(C)n1-c1ncc(C[C@H](C)C(F)(F)F)cc1OC(F)F (single isomer, unassigned) [Example 73, 1-(3-(Difluoromethoxy)-5-((S*)-3,3,3-trifluoro-2-methylpropyl)pyridin-2-yl)-2-ethyl-5-methyl-N-(((1r,4S)-4-(methylsulfonyl)cyclohexyl)methyl)-1H-imidazole-4-carboxamide] |  |  |
|  | 96 | 7 | 94 | CCc1nc(C(=O)NC[C@H]2CC[C@H](S(C)(=O)=O)CC2)c(Cl)n1-c1ncc(C[C@@H](C)C(F)(F)F)cc1OC(F)F (single isomer, unassigned) [Example 78, 5-Chloro-1-(3-(difluoromethoxy)-5-((R*)-3,3,3-trifluoro-2-methylpropyl)pyridin-2-yl)-2-ethyl-N-(((1r,4R)-4-(methylsulfonyl)cyclohexyl)methyl)-1H-imidazole-4-carboxamide] |  |  |
| 84 | 220 | 26 |  | CCc1nc(C(=O)NC[C@]2(O)CC[C@@H](S(C)(=O)=O)CC2)c(Cl)n1-c1ncc(C[C@@H](C)C(F)(F)F)cc1OC(F)F (single isomer, unassigned) [Example 79, 5-Chloro-1-(3-(difluoromethoxy)-5-((R*)-3,3,3-trifluoro-2-methylpropyl)pyridin-2-yl)-2-ethyl-N-(((1s,4S)-1-hydroxy-4-(methylsulfonyl)cyclohexyl)methyl)-1H-imidazole-4-carboxamide] |  |  |
| 113 | 54 | 58 |  | CCc1nc(C(=O)NC[C@H]2CC[C@H](S(C)(=O)=O)CC2)c(C)n1-c1ncc(C[C@@H](C)C(F)(F)F)cc1OC(F)F (single isomer, unassigned) [Example 80, 1-(3-(Difluoromethoxy)-5-((R*)-3,3,3-trifluoro-2-methylpropyl)pyridin-2-yl)-2-ethyl-5-methyl-N-(((1r,4R)-4-(methylsulfonyl)cyclohexyl)methyl)-1H-imidazole-4-carboxamide] |  |  |

The next lines start with the compound.

| SMILES | inhibition at 3 µM (full-length human RORγt) [%] | IC50 (full-length human RORγt) [nM] | Kd [1] [nM] | inhibition at 1 µM (full-length human RORγt) [%] | inhibition at 0.67 µM (full-length human RORγt) [%] | inhibition at 2 µM (full-length human RORγt; read-out: RORγt (FL) Reporter Assay A or B, % inhibition, 2 μM compound concentration (**)) [%] |
| --- | --- | --- | --- | --- | --- | --- |
| CCc1nc(C(=O)NC[C@]2(O)CC[C@@H](S(C)(=O)=O)CC2)c(Cl)n1-c1ncc(C[C@H](C)C(F)(F)F)cc1OC(F)F (single isomer, unassigned) [Example 71, 5-Chloro-1-(3-(difluoromethoxy)-5-((S*)-3,3,3-trifluoro-2-methylpropyl)pyridin-2-yl)-2-ethyl-N-(((1s,4R)-1-hydroxy-4-(methylsulfonyl)cyclohexyl)methyl)-1H-imidazole-4-carboxamide] | 90 | 160 | 28 |  |  |  |
| CCc1nc(C(=O)NC[C@H]2CC[C@H](S(C)(=O)=O)CC2)c(Cl)n1-c1c(F)cc(C[C@H](C)C(F)(F)F)cc1F (single isomer, unassigned) [Example 86, 5-Chloro-1-(2,6-difluoro-4-((S*)-3,3,3-trifluoro-2-methylpropyl)phenyl)-2-ethyl-N-(((1r,4S)-4-(methylsulfonyl)cyclohexyl)methyl)-1H-imidazole-4-carboxamide] |  | 23 | 5.3 |  | 68 |  |
| CCc1nc(C(=O)NC[C@H]2CC[C@H](S(C)(=O)=O)CC2)c(Cl)n1-c1c(F)cc(C[C@@H](C)C(F)(F)F)cc1F (single isomer, unassigned) [Example 87, 5-Chloro-1-(2,6-difluoro-4-((R*)-3,3,3-trifluoro-2-methylpropyl)phenyl)-2-ethyl-N-(((1r,4R)-4-(methylsulfonyl)cyclohexyl)methyl)-1H-imidazole-4-carboxamide] |  | 18 | 3.8 |  | 66 |  |
| CCc1nc(C(=O)NC[C@]2(O)CC[C@@H](S(C)(=O)=O)CC2)c(Cl)n1-c1ccc(CC(C)C)cc1OC (single isomer, unassigned) [Example 91, 5-Chloro-2-ethyl-N-(((1s,4S)-1-hydroxy-4-(methylsulfonyl)cyclohexyl)methyl)-1-((S*)-4-isobutyl-2-methoxyphenyl)-1H-imidazole-4-carboxamide] |  | 360 | 620 |  |  | 42 |
